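Assay format: 96-well plates, 48-hour exposure. GI50: concentration for 50% inhibition of growth. TGI: total growth inhibition.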
How the values were obtained:
Test in all cases: DTP human tumour cell line panel, 48 h
SF-268 CNS = system: SF-268 CNS
MDA-MB-435 = system: MDA-MB-435
SF-295 CNS = system: SF-295 CNS
ACHN renal = system: ACHN renal
MALME-3M melanoma = system: MALME-3M melanoma
OVCAR-4 ovarian = system: OVCAR-4 ovarian
T-47D breast = system: T-47D breast
HL-60(TB) leukemia = system: HL-60(TB) leukemia
M14 melanoma = system: M14 melanoma
OVCAR-5 ovarian = system: OVCAR-5 ovarian
KM12 colon = system: KM12 colon
OVCAR-3 ovarian = system: OVCAR-3 ovarian
NCI/ADR-RES ovarian = system: NCI/ADR-RES ovarian
HOP-92 NSCLC = system: HOP-92 NSCLC
NCI-H460 lung = system: NCI-H460 lung
RXF 393 renal = system: RXF 393 renal
HS 578T breast = system: HS 578T breast
OVCAR-8 ovarian = system: OVCAR-8 ovarian
HOP-62 NSCLC = system: HOP-62 NSCLC
UACC-257 melanoma = system: UACC-257 melanoma
LOX IMVI melanoma = system: LOX IMVI melanoma
BT-549 breast = system: BT-549 breast
CCRF-CEM leukemia = system: CCRF-CEM leukemia
A549 NSCLC = system: A549 NSCLC
786-0 renal = system: 786-0 renal
HT29 colon = system: HT29 colon
DU-145 prostate = system: DU-145 prostate
NCI-H23 lung = system: NCI-H23 lung
MOLT-4 leukemia = system: MOLT-4 leukemia
SK-OV-3 ovarian = system: SK-OV-3 ovarian
K-562 leukemia = system: K-562 leukemia
MCF7 breast = system: MCF7 breast
IGROV1 ovarian = system: IGROV1 ovarian
A498 renal = system: A498 renal
HCT-116 colon = system: HCT-116 colon
RPMI-8226 leukemia = system: RPMI-8226 leukemia
NCI-H522 lung = system: NCI-H522 lung
SNB-19 CNS = system: SNB-19 CNS
UACC-62 melanoma = system: UACC-62 melanoma
SN12C renal = system: SN12C renal
NCI-H226 lung = system: NCI-H226 lung
SF-539 CNS = system: SF-539 CNS
SK-MEL-28 melanoma = system: SK-MEL-28 melanoma
SR leukemia = system: SR leukemia
PC-3 prostate = system: PC-3 prostate
EKVX NSCLC = system: EKVX NSCLC
SNB-75 CNS = system: SNB-75 CNS
COLO 205 colon = system: COLO 205 colon
UO-31 renal = system: UO-31 renal
MDA-MB-231 breast = system: MDA-MB-231 breast
CAKI-1 renal = system: CAKI-1 renal
SK-MEL-5 melanoma = system: SK-MEL-5 melanoma
SW-620 colon = system: SW-620 colon
SK-MEL-2 melanoma = system: SK-MEL-2 melanoma
HCC-2998 colon = system: HCC-2998 colon

Question: Which results are given for `O=C1c2ccc3c4c(ccc(c24)C(=O)N1CCCNCc1ccccc1F)C(=O)N(CCCNCc1ccccc1F)C3=O`?
Answer: GI50 (SF-268 CNS): 208 nM; TGI (SF-268 CNS): 534 nM; GI50 (MDA-MB-435): 175 nM; TGI (MDA-MB-435): 359 nM; GI50 (SF-295 CNS): 176 nM; TGI (SF-295 CNS): 409 nM; GI50 (ACHN renal): 127 nM; TGI (ACHN renal): 563 nM; GI50 (MALME-3M melanoma): 151 nM; TGI (MALME-3M melanoma): 299 nM; GI50 (OVCAR-4 ovarian): 109 nM; TGI (OVCAR-4 ovarian): 237 nM; GI50 (T-47D breast): 194 nM; TGI (T-47D breast): 417 nM; GI50 (HL-60(TB) leukemia): 239 nM; TGI (HL-60(TB) leukemia): 542 nM; GI50 (M14 melanoma): 152 nM; TGI (M14 melanoma): 293 nM; GI50 (OVCAR-5 ovarian): 200 nM; TGI (OVCAR-5 ovarian): 449 nM; GI50 (KM12 colon): 127 nM; TGI (KM12 colon): 285 nM; GI50 (OVCAR-3 ovarian): 189 nM; TGI (OVCAR-3 ovarian): 557 nM; GI50 (NCI/ADR-RES ovarian): 206 nM; TGI (NCI/ADR-RES ovarian): 726 nM; GI50 (HOP-92 NSCLC): 238 nM; TGI (HOP-92 NSCLC): 566 nM; GI50 (NCI-H460 lung): 154 nM; TGI (NCI-H460 lung): 504 nM; GI50 (RXF 393 renal): 138 nM; TGI (RXF 393 renal): 274 nM; GI50 (HS 578T breast): 523 nM; TGI (HS 578T breast): 2860 nM; GI50 (OVCAR-8 ovarian): 95.4 nM; TGI (OVCAR-8 ovarian): 422 nM; GI50 (HOP-62 NSCLC): 151 nM; TGI (HOP-62 NSCLC): 331 nM; GI50 (UACC-257 melanoma): 172 nM; TGI (UACC-257 melanoma): 340 nM; GI50 (LOX IMVI melanoma): 121 nM; TGI (LOX IMVI melanoma): 317 nM; GI50 (BT-549 breast): 317 nM; TGI (BT-549 breast): 767 nM; GI50 (CCRF-CEM leukemia): 166 nM; GI50 (A549 NSCLC): 107 nM; TGI (A549 NSCLC): 294 nM; GI50 (786-0 renal): 217 nM; TGI (786-0 renal): 587 nM; GI50 (HT29 colon): 49.4 nM; TGI (HT29 colon): 203 nM; GI50 (DU-145 prostate): 154 nM; TGI (DU-145 prostate): 287 nM; GI50 (NCI-H23 lung): 171 nM; TGI (NCI-H23 lung): 369 nM; GI50 (MOLT-4 leukemia): 144 nM; TGI (MOLT-4 leukemia): 544 nM; GI50 (SK-OV-3 ovarian): 249 nM; TGI (SK-OV-3 ovarian): 635 nM; GI50 (K-562 leukemia): 209 nM; TGI (K-562 leukemia): 5520 nM; GI50 (MCF7 breast): 109 nM; TGI (MCF7 breast): 359 nM; GI50 (IGROV1 ovarian): 180 nM; TGI (IGROV1 ovarian): 543 nM; GI50 (A498 renal): 310 nM; TGI (A498 renal): 1720 nM; GI50 (HCT-116 colon): 67.6 nM; TGI (HCT-116 colon): 303 nM; GI50 (RPMI-8226 leukemia): 272 nM; TGI (RPMI-8226 leukemia): 818 nM; GI50 (NCI-H522 lung): 154 nM; TGI (NCI-H522 lung): 298 nM; GI50 (SNB-19 CNS): 136 nM; TGI (SNB-19 CNS): 275 nM; GI50 (UACC-62 melanoma): 179 nM; TGI (UACC-62 melanoma): 335 nM; GI50 (SN12C renal): 144 nM; TGI (SN12C renal): 296 nM; GI50 (NCI-H226 lung): 210 nM; TGI (NCI-H226 lung): 482 nM; GI50 (SF-539 CNS): 208 nM; TGI (SF-539 CNS): 464 nM; GI50 (SK-MEL-28 melanoma): 210 nM; TGI (SK-MEL-28 melanoma): 465 nM; GI50 (SR leukemia): 123 nM; TGI (SR leukemia): 614 nM; GI50 (PC-3 prostate): 228 nM; TGI (PC-3 prostate): 658 nM; GI50 (EKVX NSCLC): 171 nM; TGI (EKVX NSCLC): 331 nM; GI50 (SNB-75 CNS): 164 nM; TGI (SNB-75 CNS): 320 nM; GI50 (COLO 205 colon): 86.3 nM; TGI (COLO 205 colon): 208 nM; GI50 (UO-31 renal): 194 nM; TGI (UO-31 renal): 468 nM; GI50 (MDA-MB-231 breast): 250 nM; TGI (MDA-MB-231 breast): 717 nM; GI50 (CAKI-1 renal): 187 nM; TGI (CAKI-1 renal): 495 nM; GI50 (SK-MEL-5 melanoma): 163 nM; TGI (SK-MEL-5 melanoma): 299 nM; GI50 (SW-620 colon): 75.4 nM; TGI (SW-620 colon): 274 nM; GI50 (SK-MEL-2 melanoma): 192 nM; TGI (SK-MEL-2 melanoma): 366 nM; GI50 (HCC-2998 colon): 158 nM; TGI (HCC-2998 colon): 312 nM
